What was measured:
[1] = xn = mol fraction of the nth substance listed; conditions: 101 kPa, Liquid
[2] = 101 kPa, Liquid

CN1CCCC1=O [N-methylpyrrolidone] + Cc1ccccc1
[1]
Conditions | mass density [kg/m3] | viscosity [mPa·s]
303.15 K, x2 = 0 | 1023.47 | 1.554
303.15 K, x2 = 0.1071 | 1006.98 | 1.399
303.15 K, x2 = 0.2121 | 990.67 | 1.258
303.15 K, x2 = 0.3156 | 974.42 | 1.138
303.15 K, x2 = 0.4177 | 958.02 | 1.021
303.15 K, x2 = 0.5185 | 941.54 | 0.923
303.15 K, x2 = 0.6174 | 925 | 0.822
303.15 K, x2 = 0.7151 | 907.95 | 0.727
303.15 K, x2 = 0.8114 | 890.99 | 0.65
303.15 K, x2 = 0.9064 | 874.21 | 0.566
313.15 K, x2 = 0 | 1014.55 | 1.332
313.15 K, x2 = 0.1071 | 998.03 | 1.21
313.15 K, x2 = 0.2121 | 981.67 | 1.088
313.15 K, x2 = 0.3156 | 965.37 | 0.991
313.15 K, x2 = 0.4177 | 948.91 | 0.89
313.15 K, x2 = 0.5185 | 932.4 | 0.803
313.15 K, x2 = 0.6174 | 915.81 | 0.719
313.15 K, x2 = 0.7151 | 898.7 | 0.642
313.15 K, x2 = 0.8114 | 881.69 | 0.575
313.15 K, x2 = 0.9064 | 864.87 | 0.516
323.15 K, x2 = 0 | 1005.66 | 1.16
323.15 K, x2 = 0.1071 | 989.08 | 1.061
323.15 K, x2 = 0.2121 | 972.67 | 0.956
323.15 K, x2 = 0.3156 | 956.3 | 0.87
323.15 K, x2 = 0.4177 | 939.78 | 0.783
323.15 K, x2 = 0.5185 | 923.24 | 0.71
323.15 K, x2 = 0.6174 | 906.6 | 0.639
323.15 K, x2 = 0.7151 | 889.42 | 0.572
323.15 K, x2 = 0.8114 | 872.36 | 0.514
323.15 K, x2 = 0.9064 | 855.48 | 0.463
333.15 K, x2 = 0 | 996.71 | 1.022
333.15 K, x2 = 0.1071 | 980.08 | 0.932
333.15 K, x2 = 0.2121 | 963.63 | 0.844
333.15 K, x2 = 0.3156 | 947.17 | 0.766
333.15 K, x2 = 0.4177 | 930.61 | 0.695
333.15 K, x2 = 0.5185 | 914.01 | 0.632
333.15 K, x2 = 0.6174 | 897.3 | 0.57
333.15 K, x2 = 0.7151 | 880.06 | 0.514
333.15 K, x2 = 0.8114 | 862.94 | 0.463
333.15 K, x2 = 0.9064 | 845.99 | 0.418
343.15 K, x2 = 0 | 987.75 | 0.908
343.15 K, x2 = 0.1071 | 971.08 | 0.844
343.15 K, x2 = 0.2121 | 954.56 | 0.751
343.15 K, x2 = 0.3156 | 938.03 | 0.683
343.15 K, x2 = 0.4177 | 921.4 | 0.622
343.15 K, x2 = 0.5185 | 904.74 | 0.566
343.15 K, x2 = 0.6174 | 887.95 | 0.518
343.15 K, x2 = 0.7151 | 870.65 | 0.464
343.15 K, x2 = 0.8114 | 853.44 | 0.418
343.15 K, x2 = 0.9064 | 836.42 | 0.379
353.15 K, x2 = 0 | 978.76 | 0.8127
353.15 K, x2 = 0.1071 | 962 | 0.7651
353.15 K, x2 = 0.2121 | 945.42 | 0.6769
353.15 K, x2 = 0.3156 | 928.81 | 0.617
353.15 K, x2 = 0.4177 | 912.13 | 0.5616
353.15 K, x2 = 0.5185 | 895.4 | 0.513
353.15 K, x2 = 0.6174 | 878.51 | 0.464
353.15 K, x2 = 0.7151 | 861.11 | 0.422
353.15 K, x2 = 0.8114 | 843.83 | 0.381
353.15 K, x2 = 0.9064 | 826.71 | 0.347

Cc1ccccc1 [toluene]
[2]
Conditions | mass density [kg/m3] | viscosity [mPa·s]
303.15 K | 858.32 | 0.525
313.15 K | 848.92 | 0.47
323.15 K | 839.45 | 0.423
333.15 K | 829.93 | 0.385
343.15 K | 820.3 | 0.35
353.15 K | 810.54 | 0.323

CN1CCCC1=O [N-methylpyrrolidone] + C1CCCCC1
[1]
Conditions | mass density, 303.15 K [kg/m3] | mass density, 313.15 K [kg/m3] | mass density, 323.15 K [kg/m3] | mass density, 333.15 K [kg/m3] | viscosity, 303.15 K [mPa·s] | viscosity, 313.15 K [mPa·s] | viscosity, 323.15 K [mPa·s] | viscosity, 333.15 K [mPa·s]
x2 = 0 | 1023.47 | 1014.55 | 1005.66 | 996.71 | 1.554 | 1.332 | 1.16 | 1.022
x2 = 0.1157 | 989.9 | 980.96 | 972.02 | 963.06 | 1.394 | 1.206 | 1.056 | 0.931
x2 = 0.2275 | 958.38 | 949.41 | 940.41 | 931.37 | 1.28 | 1.106 | 0.965 | 0.854
x2 = 0.3355 | 928.85 | 919.78 | 910.71 | 901.57 | 1.194 | 1.032 | 0.9 | 0.791
x2 = 0.4398 | 901.35 | 892.21 | 883.02 | 873.78 | 1.132 | 0.973 | 0.843 | 0.739
x2 = 0.5409 | 875.71 | 866.43 | 857.14 | 847.77 | 1.073 | 0.92 | 0.791 | 0.692
x2 = 0.6386 | 851.53 | 842.17 | 832.77 | 823.29 | 1.011 | 0.866 | 0.746 | 0.648
x2 = 0.7332 | 828.73 | 819.29 | 809.79 | 800.2 | 0.953 | 0.813 | 0.699 | 0.608
x2 = 0.8249 | 807.41 | 797.92 | 788.36 | 778.69 | 0.895 | 0.76 | 0.655 | 0.573
x2 = 0.9138 | 787.37 | 777.85 | 768.22 | 758.49 | 0.843 | 0.72 | 0.623 | 0.544

CN1CCCC1=O [N-methylpyrrolidone]
[2]
Conditions | mass density [kg/m3] | viscosity [mPa·s]
303.15 K | 1023.47 | 1.554
313.15 K | 1014.55 | 1.332
323.15 K | 1005.66 | 1.16
333.15 K | 996.71 | 1.022
343.15 K | 987.75 | 0.908
353.15 K | 978.76 | 0.8127

c1ccccc1 [benzene]
[2]
Conditions | mass density [kg/m3] | viscosity [mPa·s]
303.15 K | 868.21 | 0.561
313.15 K | 857.46 | 0.493
323.15 K | 846.65 | 0.436
333.15 K | 835.72 | 0.388
343.15 K | 824.87 | 0.345

Cc1ccccc1 [toluene] + CN1CCCC1=O
[1], x1 = 1
Conditions | mass density [kg/m3] | viscosity [mPa·s]
303.15 K | 858.32 | 0.525
313.15 K | 848.92 | 0.47
323.15 K | 839.45 | 0.423
333.15 K | 829.93 | 0.385
343.15 K | 820.3 | 0.35
353.15 K | 810.54 | 0.323

C1CCCCC1 [cyclohexane]
[2]
Conditions | mass density [kg/m3] | viscosity [mPa·s]
303.15 K | 769.1 | 0.821
313.15 K | 759.6 | 0.696
323.15 K | 749.98 | 0.598
333.15 K | 740.23 | 0.52

c1ccccc1 [benzene] + CN1CCCC1=O
[1], x1 = 1
Conditions | mass density [kg/m3] | viscosity [mPa·s]
303.15 K | 868.21 | 0.561
313.15 K | 857.46 | 0.493
323.15 K | 846.65 | 0.436
333.15 K | 835.72 | 0.388
343.15 K | 824.87 | 0.345

CN1CCCC1=O [N-methylpyrrolidone] + c1ccccc1
[1]
Conditions | mass density, 303.15 K [kg/m3] | mass density, 313.15 K [kg/m3] | mass density, 323.15 K [kg/m3] | mass density, 333.15 K [kg/m3] | mass density, 343.15 K [kg/m3] | viscosity, 303.15 K [mPa·s] | viscosity, 313.15 K [mPa·s] | viscosity, 323.15 K [mPa·s] | viscosity, 333.15 K [mPa·s] | viscosity, 343.15 K [mPa·s]
x2 = 0 | 1023.47 | 1014.55 | 1005.66 | 996.71 | 987.75 | 1.554 | 1.332 | 1.16 | 1.022 | 0.908
x2 = 0.1239 | 1008.67 | 999.64 | 990.6 | 981.51 | 972.41 | 1.357 | 1.163 | 1.015 | 0.895 | 0.797
x2 = 0.2409 | 993.24 | 984.1 | 974.95 | 965.76 | 956.53 | 1.222 | 1.049 | 0.915 | 0.807 | 0.712
x2 = 0.3523 | 978.06 | 968.78 | 959.51 | 950.17 | 940.78 | 1.102 | 0.952 | 0.834 | 0.735 | 0.656
x2 = 0.4584 | 962.87 | 953.43 | 943.96 | 934.42 | 924.85 | 0.991 | 0.858 | 0.753 | 0.665 | 0.593
x2 = 0.5594 | 947.6 | 937.99 | 928.33 | 918.6 | 908.82 | 0.899 | 0.779 | 0.684 | 0.604 | 0.539
x2 = 0.6557 | 931.99 | 922.17 | 912.31 | 902.36 | 892.35 | 0.809 | 0.703 | 0.62 | 0.548 | 0.491
x2 = 0.7476 | 916.33 | 906.29 | 896.21 | 886.02 | 875.8 | 0.729 | 0.636 | 0.56 | 0.498 | 0.447
x2 = 0.8354 | 900.43 | 890.16 | 879.84 | 869.42 | 858.93 | 0.655 | 0.573 | 0.505 | 0.451 | 0.405
x2 = 0.9195 | 884.33 | 873.83 | 863.26 | 852.58 | 841.81 | 0.585 | 0.519 | 0.458 | 0.41 | 0.369

C1CCCCC1 [cyclohexane] + CN1CCCC1=O
[1], x1 = 1
Conditions | mass density [kg/m3] | viscosity [mPa·s]
303.15 K | 769.1 | 0.821
313.15 K | 759.6 | 0.696
323.15 K | 749.98 | 0.598
333.15 K | 740.23 | 0.52

Source: the NIST ThermoML archive (doi:10.1016/j.jct.2006.06.005)
